Measured values from ChEMBL document CHEMBL1136475, “Synthesis and analgesic activity of hydrochlorides and quaternary ammoniums of epibatidine incorporated with amino acid ester” (Bioorg Med Chem Lett, 2003).

Experiments:
[1] = target: Neuronal acetylcholine receptor; assay: Binding affinity towards nicotinic acetylcholine receptor (nAChR); type: protein-complex assay
[2] = system: Mus musculus; assay: In vivo analgesic activity using acetic acid writhing test in mice at a dose of 10 mg/kg by sc administration; type: functional; conditions: route subcutaneous
[3] = system: Mus musculus; assay: In vivo analgesic activity using acetic acid writhing test in mice at a dose of 20 mg/kg by sc administration; type: functional; conditions: route subcutaneous
[4] = Toxicity in rats was determined by sc administration at a dose of 10 mg/kg; type: organism-based; design: dose 10 mg/kg, route subcutaneous; conditions: rat, in vivo, read-out: Rate of death
[5] = Toxicity in rats was determined by sc administration at a dose of 5 mg/kg; type: organism-based; design: dose 5 mg/kg, route subcutaneous; conditions: rat, in vivo, read-out: Rate of death
[6] = system: Mus musculus; assay: In vivo analgesic activity using acetic acid writhing test in mice at a dose of 5 mg/kg by sc administration; type: functional; conditions: route subcutaneous
[7] = Toxicity in rats was determined by sc administration at a dose of 1 mg/kg; type: organism-based; design: dose 1 mg/kg, route subcutaneous; conditions: rat, in vivo, read-out: Rate of death
[8] = system: Mus musculus; assay: In vivo analgesic activity using acetic acid writhing test in mice at a dose of 1 mg/kg by sc administration; type: functional; conditions: route subcutaneous
[9] = Toxicity in rats was determined by sc administration at a dose of 20 mg/kg; type: organism-based; design: dose 20 mg/kg, route subcutaneous; conditions: rat, in vivo, read-out: Rate of death

Row | Structure (SMILES) | Inhibitory rate [3] [%] | mortality [9] [%] | further results
1 | c1cncc(CN2C3CCC2CC3)c1 |  |  | Ki [1]: 98 nM
2 | CCOC(=O)CCC(NC(=O)C1C(c2ccc(Cl)nc2)C2CCC1[N+]2(C)Cc1ccccc1)C(=O)OCC.[I-] (configuration not stated) | 1 |  | Inhibitory rate [2]: 99.3%; mortality [4]: 80%
3 | CCOC(=O)C1CSCN1C(=O)C1C(c2ccc(Cl)nc2)C2CCC1[N+]2(C)Cc1ccccc1.[I-] (configuration not stated) |  |  | mortality [5]: 0%; Inhibitory rate [6]: 49.8%; mortality [7]: 0%; Inhibitory rate [8]: 9.1%
4 | CCOC(=O)CNC(=O)C1C(c2ccc(Cl)nc2)C2CCC1[N+]2(C)Cc1ccccc1.[I-] (configuration not stated) | 66.6 | 0 | 
5 | C[N+]1(Cc2ccccc2)CCN(C(=O)CCCCCCC(=O)N2CC[N+](C)(Cc3ccccc3)CC2)CC1.[Br-].[Br-] | 80.3 |  | 
6 | CCOC(=O)CCC(NC(=O)C1C(c2ccc(Cl)nc2)C2CCC1N2Cc1ccccc1)C(=O)OCC.Cl (configuration not stated) | 27.1 | 0 | 
7 | CCOC(=O)CNC(=O)C1C(c2ccc(Cl)nc2)C2CCC1N2Cc1ccccc1.Cl (configuration not stated) | 26.1 | 0 | 
8 | CCOC(=O)C1CSCN1C(=O)C1C(c2ccc(Cl)nc2)C2CCC1N2Cc1ccccc1.Cl (configuration not stated) | 12.3 | 0 | 
